The values below come from US20230165865A1, “HETEROARYLDIHYDROPYRIMIDINE DERIVATIVES AND METHODS OF TREATING HEPATITIS B INFECTIONS” (Janssen Pharmaceutica NV, priority 2018, published 2023).

One series has as its system HBV. As to the kind of experiment: Anti-viral assay in HepG2.2.15 cells: anti-HBV activity, HBV DNA in culture medium by qPCR. The format is cell-based. As to conditions: HepG2.2.15 cells, 6 days treatment, HBV DNA by qPCR; read-out: EC50. The essentials: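 Cells in 2% FBS medium treated 6 days, compound and medium refreshed at day 3; 8-point 1:3 dilutions in triplicate, top 10 or 1 uM (antiviral) and 100 uM (cytotoxicity). Extracellular viral DNA quantified by qPCR, giving EC50 and CC50.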
(Quantitative PCR measures a nucleic acid by following its amplification.)

A further series has as its system HepG2.2.15 cells. Briefly: Cytotoxicity determination in HepG2.2.15 cells (CCK-8 assay). Type of series: cell-based. As to conditions: 6 days treatment, CCK-8, highest concentration 100 uM. The gist of the method: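 HepG2.2.15 cells (5,000/well, 2% FBS medium) were treated for 6 days, with medium and compound refreshed at day 3. Dosing was an 8-point 1:3 series from 100 uM, in triplicate. Viability was measured by CCK-8 after 2.5 h at 37 °C (A450, 630 nm reference), and CC50 was calculated.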

Series [1] can be described thus: Metabolic stability of test compound in human hepatocyte cell. The format is in vitro ADME. As to conditions: cryopreserved human hepatocytes (suspension), human hepatocytes; for half-life at 1 uM: 0-120 min, read-out: T½; for CLint scaled at 1 uM: scale-up intrinsic clearance, scaling factor 2544.3, read-out: Clint (liver). The method, then:
(§1) • 1. The cryopreserved human hepatocytes cells were thawed in 37° C. water bath and diluted with pre-warmed incubation medium to a working cell density of 1×10^6 viable cells/mL. • 2. The 198 μL pre-warmed hepatocyte suspensions were spiked with 2 μL of 100 μM compound or reference compound(Verapamil) at a final concentration of 1.0 μM in a 96-well plate. The plate was incubated at 37° C., 900 rpm. All incubations will be performed in singlet. • 3. 25 μL aliquots of well contents were collected at time points of 0, 15, 30, 60, 90 and 120 minutes. The reactions were stopped by the addition of 6-fold volumes of cold acetonitrile with internal standards. • 4. After centrifugation for 25 minutes at 3,220 g. Aliquot of 100 μL of the supernatant was mixed with 100 μL of ultra-pure H2O and then used for LC-MS/MS analysis.
(§2) All calculations were carried out using Microsoft Excel. Peak areas were determined from extracted ion chromatograms. Determine the in vitro half-life (t1/2) of parent compound by regression analysis of the percent parent disappearance vs. time curve.
(§3) The in vitro half-life (in vitro t1/2) is determined from the slope value k:
(§4) Conversion of the in vitro t1/2(in min) into the in vitro intrinsic clearance (in vitro CLint, in μL/min/10^6 cells) is done using the following equation:
(§5) V=incubation volume (0.2 mL);
(§6) N=number of hepatocytes per well (0.2×10^6 cells).
(§7) Conversion of the in vitro t1/2(in min) into the scale-up intrinsic clearance (CLint(liver), in mL/min/kg) was done using the following equation:
(§8) CLint(liver)=kV/N×scaling factor

The subject of a further series is human hepatocytes. The series is described as above. Type of series: in vitro ADME. As to conditions: comparing with reference 1 and reference 2. As to the method:
as §1, §2, §3, §4, §5, §6, §7, §8

Series [2] can be described thus: Pharmacokinetic and tissue distribution study via intravenous and oral administration in male C57BL/6 mice. The format is in vivo. As to conditions: for Kp: liver and plasma, po. The method, then: Male C57BL/6 mice with a weight range of 20-25 g (Hua Fu Kang, China) were used. Animals were fasted overnight and free access to food 4 hours after dosing.
Test compound (correction factor: 1.00) was dissolved in a 20% hydroxypropyl-β-cyclodextrin (HP-β-CD) at a final concentration of 1 mg/ml for the intravenous (IV) formulation and at final concentrations of 0.5 mg/ml for the oral (PO) formulation. The intravenous formulation was dosed at 2 ml/kg to obtain a dose of 2 mg/kg. The oral formulations were dosed at 10 ml/kg to obtain final doses of 5 mg/kg.
Blood samples were taken at 7 and 20 min, 1, 2, 4, 8 and 24 h after intravenous dose administration. Blood and liver samples were taken at 30 min, 1, 2, 4, 8, 12 and 24 h after oral dose administration.
Approximately 0.020 mL blood will be collected into BD blood collection tubes containing K3-EDTA at each time point. Samples were placed immediately on melting ice and plasma was obtained following centrifugation at 4° C. for 5 minutes at approximately 4000×g. Plasma samples were adjusted to pH 3-4 by phosphoric acid and stored at −75±15° C. prior to analysis. The whole process was completed within 1 hour.
Liver samples were collected at adopted time point, and the vial containing the tissues sample was snap-frozen in liquid nitrogen right away and kept at −75±15° C. prior to analysis. All liver samples were weighed and homogenized with phosphoric acid solution (pH to 3-4) by liver weight (g) to phosphoric acid solution volume (mL) ratio 1:4 before analysis.
Plasma and liver samples were analyzed using LC-MS/MS methods. The lower limit of quantification (LLOQ) for plasma was 1.0 ng/ml and for liver was 2.5 ng/g. A non-compartmental analysis using the “Linear up log down” rule was used for all data. A limited pharmacokinetic analysis was performed using Phoenix™ Professional (Version 6.1).

Series [3] in a line: Pharmacokinetic study after intravenous and oral administration in male SD rats. Type of series: in vivo. As to conditions: for clearance / Cmax: male, SD; for clearance / Cmax / IV AUCinf/Dose / PO AUCinf/Dose / clearance, in words / dose-normalized AUC (AUCinf/Dose), in words: rat plasma; for clearance / IV AUCinf/Dose: IV, nominal 2 mg/kg; for clearance: read-out: IV Cl; for Cmax / PO AUCinf/Dose: PO; for Cmax: nominal 5 mg/kg; for clearance, in words / dose-normalized AUC (AUCinf/Dose), in words / bioavailability (F (%)), in words: comparing with reference 2; for F / bioavailability (F (%)), in words: rat; for F: PO vs IV. The method, then:
Male SD rats with a weight range of 250-300 g (Si Bei Fu Laboratory Animal Technology Co. Ltd, China) were used. Animals were fasted overnight and free access to food 4 hours after dosing.
Test compound (correction factor: 1.00) was dissolved in a 20% hydroxypropyl-β-cyclodextrin (HP-β-CD) at a final concentration of 1 mg/ml for the intravenous (IV) formulation and at final concentrations of 0.5 mg/ml for the oral (PO) formulation.
The intravenous formulation was dosed at 2 ml/kg to obtain a dose of 2 mg/kg. The oral formulations were dosed at 10 ml/kg to obtain final doses of 5 mg/kg.
Blood samples were taken at 5, 15 and 30 min, 1, 2, 4, 8 and 24 h after intravenous dose administration. Blood samples were taken at 15 and 30 min, 1, 2, 4, 8, 12 and 24 h after oral dose administration.
Approximately 0.20 mL blood will be collected into BD blood collection tubes containing Sodium Fluoride (NaF), Potassium Oxalate (KoX) and K3-EDTA at each time point. Samples were placed immediately on melting ice and plasma was obtained following centrifugation at 4° C. for 5 minutes at approximately 4000×g. Plasma samples were adjusted to pH 3-4 by phosphoric acid and stored at −75±15° C. prior to analysis. The whole process was completed within 1 hour.
Plasma samples were analyzed using LC-MS/MS methods. The lower limit of quantification (LLOQ) for plasma was 1.0 ng/ml.
A non-compartmental analysis using the “Linear up log down” rule was used for all data. A limited pharmacokinetic analysis was performed using Phoenix™ Professional (Version 6.1). Results: See table 10 below for plasma PK results.

Like-named read-outs stand apart in the source and are kept apart here. Bounds are passed on as bounds.

Take `CCOC(=O)C1=C(CN2CCN3C(=S)N(CC(C)(C)C(=O)O)CC3C2)NC(c2nccs2)=NC1c1cccc(F)c1Cl` (single isomer, unassigned) [Compound 3B, 3-(7-((6-(2-chloro-3-fluorophenyl)-5-(ethoxycarbonyl)-2-(thiazol-2-yl)-3,6-dihydropyrimidin-4-yl)methyl)-3-thioxohexahydroimidazo[1,5-a]pyrazin-2(3H)-yl)-2,2-dimethylpropanoic acid]: the EC50 with HBV worked out at 0.0017 µM. The same compound yielded a cytotoxic concentration (CC50) in the series with HepG2.2.15 cells of 17.8 µM. In series [1], the half-life at 1 uM worked out at 2.91 h and the CLint scaled at 1 uM came out at 10.1 mL/min/kg. The “metabolic stability in human hepatocyte cells, in words” value in the series on human hepatocytes is recorded as “improved metabolic stability”. The Kp in series [2] (male, C57BL/6, mouse, mice, PO, read-out: AUCInf Ratio (Liver/Plasma)) came to 19.9. The Kp in series [2] (male, C57BL/6, mouse, mice, PO, read-out: Cmax Ratio (Liver/Plasma)) was 15.3. The clearance in series [2] (male, C57BL/6, mouse, mice plasma, IV, nominal 2 mg/kg, read-out: IV Cl) amounted to 20.2 mL/min/kg. The compound further displayed a Cmax in series [2] (male, C57BL/6, mouse, mice plasma, PO, dose per compound in table (5.28-9.95 mg/kg)) of 2340 ng/mL. Further, in series [2] (mice liver, PO), the “Liver AUCinf/Dose” value was found to be 20884 ng·kg·h/g/mg and the “Liver Cmax/Dose” value was determined as 6624 kg·ng/mg/mL. Besides, the “dose-normalized Cmax and dose-normalized AUCinf in liver, in words” value in series [2] (mice liver, comparing with reference 1 and reference 2) was “far increased”. The “IV AUCinf/Dose” value in series [2] (mice plasma, IV, nominal 2 mg/kg) was determined as 830.9 ng·kg·h/mg/mL. In addition, the “PO AUCinf/Dose” value in series [2] (mice plasma, PO) was 1049.3 ng·kg·h/mg/mL. For the same compound, the “clearance, in words” value in series [2] (mice plasma, comparing with reference 1 and reference 2) is “far slower clearance”. The same compound yielded a F in series [2] (mice, PO vs IV) of 126%. For the same compound, the “bioavailability in plasma, in words” value in series [2] (mice, comparing with reference 1 and reference 2) is “increased bioavailability”. In series [3], the clearance came out at 23.4 mL/min/kg, the Cmax came out at 1180 ng/mL, the “IV AUCinf/Dose” value turned out to be 771.6 ng·kg·h/mg/mL and the “PO AUCinf/Dose” value came to 389.2 ng·kg·h/mg/mL. In series [3], the “clearance, in words” value is listed as “far slower clearance”; the “dose-normalized AUC (AUCinf/Dose), in words” value was “over two-folds higher”; the F stood at 50.3%; the “bioavailability (F (%)), in words” value is listed as “increased (or equal) bioavailability”.
Regarding `COC(=O)C1=C(CN2CCN3C(=S)N(CC(C)(C)C(=O)O)CC3C2)NC(c2nccs2)=NC1c1ccc(F)cc1Cl` (single isomer, unassigned) [Compound 4B, 3-(7-((6-(2-chloro-4-fluorophenyl)-5-(methoxycarbonyl)-2-(thiazol-2-yl)-3,6-dihydropyrimidin-4-yl)methyl)-3-thioxohexahydroimidazo[1,5-a]pyrazin-2(3H)-yl)-2,2-dimethylpropanoic acid], the EC50 with HBV was found to be 0.0019 µM. In addition, the CC50 in the series on HepG2.2.15 cells was determined as 23.1 µM. Also, in series [1], the half-life at 1 uM was more than 4.82 h and the CLint scaled at 1 uM was less than 6.1 mL/min/kg. In addition, the “metabolic stability in human hepatocyte cells, in words” value with human hepatocytes is given as “improved metabolic stability”. In series [3], the clearance was 28.8 mL/min/kg, the highest level (Cmax) was 962 ng/mL, the “IV AUCinf/Dose” value was determined as 594.3 ng·kg·h/mg/mL and the “PO AUCinf/Dose” value came out at 336.8 ng·kg·h/mg/mL. Further, in series [3], the “clearance, in words” value is listed as “far slower clearance”; the “dose-normalized AUC (AUCinf/Dose), in words” value was “over two-folds higher”; the F came to 56.5%; the “bioavailability (F (%)), in words” value is “increased (or equal) bioavailability”.

The EC50 is the concentration giving half of the maximal effect. What is called CC50 is the concentration that lowers cell viability or growth by half. Read a low CC50 as greater toxicity to the cells. Broadly, the Cmax is the maximum level reached in the sampled fluid or tissue.
